Patent publication US8093278B2, “Substituted indoles” (AstraZeneca AB, priority 2002, dated 2012)
Counter-ions that a name gives are not always drawn.

Legend:
rhCRTh2 = molecular target: T1, rhCRTh2 (Homo sapiens, UniProt Q9Y5Y4); test: Ligand Binding Assay ([3H]PGD2 SPA, HEK cell membranes); conditions: [3H]PGD2 displacement, HEK membranes expressing rhCRTh2/Gα16, SPA beads, 2 hours room temperature
T1 construct: expressed in transfected cells; host or cells: HEK cells (membrane preparation)
T1 sequence (Q9Y5Y4 1-395): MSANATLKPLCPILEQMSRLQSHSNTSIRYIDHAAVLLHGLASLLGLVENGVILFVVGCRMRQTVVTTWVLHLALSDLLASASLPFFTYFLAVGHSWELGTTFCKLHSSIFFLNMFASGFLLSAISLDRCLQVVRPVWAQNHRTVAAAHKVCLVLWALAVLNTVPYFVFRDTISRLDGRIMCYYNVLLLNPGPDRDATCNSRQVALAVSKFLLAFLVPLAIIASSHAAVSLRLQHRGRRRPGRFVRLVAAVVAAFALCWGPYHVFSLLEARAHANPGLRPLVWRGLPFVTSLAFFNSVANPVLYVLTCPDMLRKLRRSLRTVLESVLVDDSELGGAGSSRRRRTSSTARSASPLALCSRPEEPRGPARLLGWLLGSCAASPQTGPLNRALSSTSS
Description: • 1) Gassmann, Berge, T. J., Gilbert, D. P., Berkeley, W. C., JACS, 96, 5495-5508, (1974). Pharmacological Data Ligand Binding Assay
[^3H]PGD2 was purchased from Perkin Elmer Life Sciences with a specific activity of 100-210 Ci/mmol. All other chemicals were of analytical grade.
HEK cells expressing rhCRTh2/Gα16 were routinely maintained in DMEM containing 10% Foetal Bovine Serum (HyClone), 1 mg/ml geneticin, 2 mM L-glutamine and 1% non-essential amino acids. For the preparation of membranes, the adherent transfected HEK cells were grown to confluence in two layer tissue culture factories (Fisher, catalogue number TKT-170-070E). Maximal levels of receptor expression were induced by addition of […] sodium butyrate for the last 18 hours of culture. The adherent cells were washed once with phosphate buffered saline (PBS, 50 ml per cell factory) and detached by the addition of 50 ml per cell factory of ice-cold membrane homogenisation buffer [20 mM HEPES (pH 7.4), 0.1 mM dithiothreitol, 1 mM EDTA, 0.1 mM phenyl methyl sulphonyl fluoride and 100 μg/ml bacitracin]. […] The final pellet was re-suspended in 4 ml of membrane homogenisation buffer per cell factory used and the protein content determined. […]
All assays were performed in Corning clear bottomed, white 96-well NBS plates (Fisher). […] (The optimum coating concentrations were determined for each batch of membranes) The beads were pelleted by centrifugation (800×g for 7 minutes at 4° C.), washed once with assay buffer (50 mM HEPES pH 7.4 containing 5 mM magnesium chloride) and finally re-suspended in assay buffer at a bead concentration of 10 mg/ml.
Each assay contained 20 μl of 6.25 nM [^3H]PGD2, 20 μl membrane saturated SPA beads both in assay buffer and 10 μl of compound solution or 13,14-dihydro-15-keto prostaglandin D2 (DK-PGD2, for determination of non-specific binding, Cayman chemical company). […] The assay plate was incubated at room temperature for 2 hours and counted on a Wallac Microbeta liquid scintillation counter (1 minute per well).

| IC50 (rhCRTh2) | melting point | SMILES |
| --- | --- | --- |
| 20 nM |  | Cc1ccc2c(c1)c(-c1ccnc3ccccc13)c(C)n2CC(=O)O [Example 14, 2,5-dimethyl-3-(4-quinolinyl)-1H-indole-1-acetic acid, sodium salt] |
| 7.08 nM |  | Cc1c(-c2nsc3ccccc23)c2cc(F)ccc2n1CC(=O)O [Example 36, 3-(1,2-benzisothiazol-3-yl)-5-fluoro-2-methyl-1H-indole-1-acetic acid] |
| 53.7 nM |  | O=C(O)Cn1c(CO)c(-c2ccnc3cc(Cl)ccc23)c2cc(Cl)ccc21 [Example 55, 5-Chloro-3-(7-chloro-4-quinolinyl)-2-(hydroxymethyl)-1H-indole-1-acetic acid] |
|  | 195 to 198 °C | Cc1c(-c2ccnc3cc(Cl)ccc23)c2cc(NS(C)(=O)=O)ccc2n1CC(=O)O [Example 46, 3-(7-Chloro-4-quinolinyl)-2-methyl-5-[(methylsulfonyl)amino]-1H-indole-1-acetic acid] |
